Active and inactive are the calls of the source. The rule behind the calls is not given here.
Experiments:
B16 [1] = assay: Antiproliferative activity against mouse B16 cells assessed as inhibition of cell proliferation irradiated with 640 +/- 15 nm red LED for 4 hrs in presence of 30 uM D-mannitol measured after 24 hrs under hypoxic condition by MTT assay; assay type: functional, cell-based
[2] = Drug uptake in human A-375 cells lysosome after 24 hrs by Lyso-Tracker Red dye based confocal microscopic method; assay type: ADME, subcellular; conditions: a-375, 24 h
[3] = Drug uptake in mouse B16 cells lysosome after 24 hrs by Lyso-Tracker Red dye based confocal microscopic method; assay type: ADME, subcellular; conditions: b16, 24 h
A-375 [4] = assay: Induction of morphological changes in human A-375 cells assessed as nuclear shrinkage at 100 to 300 nM incubated for 24 hrs by Hoechst 33258 staining based assay; assay type: functional, cell-based; conditions: dose 100-300 nM
A-375 [5] = assay: Induction of morphological changes in human A-375 cells assessed as chromatin condensation at 100 to 300 nM incubated for 24 hrs by Hoechst 33258 staining based assay; assay type: functional, cell-based; conditions: dose 100-300 nM
A-375 [6] = assay: Induction of apoptosis in human A-375 cells assessed as apoptotic cells at 100 nM irradiated with 640 +/- 15 nm red LED for 1 hrs after 24 hrs by Annexin V-FITC/propidium iodide staining based flow cytometric analysis relative to control; assay type: functional, cell-based
B16 [7] = assay: Induction of apoptosis in mouse B16 cells assessed as decrease in Bcl2 level at 200 to 400 nM irradiated with 640 +/- 15 nm red LED for 1 hrs measured after 24 hrs by Western blot analysis; assay type: functional, cell-based; conditions: dose 200-400 nM
A-375 [8] = assay: Induction of apoptosis in human A-375 cells assessed as increase in cleaved caspase 3 level at 100 to 300 nM irradiated with 640 +/- 15 nm red LED for 1 hrs measured after 24 hrs by Western blot analysis; assay type: functional, cell-based; conditions: dose 100-300 nM
A-375 [9] = assay: Induction of apoptosis in human A-375 cells assessed as increase in cytochrome c level at 100 to 300 nM irradiated with 640 +/- 15 nm red LED for 1 hrs measured after 24 hrs by Western blot analysis; assay type: functional, cell-based; conditions: dose 100-300 nM
B16 [10] = assay: Induction of apoptosis in mouse B16 cells assessed as increase in cytochrome c level at 200 to 400 nM irradiated with 640 +/- 15 nm red LED for 1 hrs measured after 24 hrs by Western blot analysis; assay type: functional, cell-based; conditions: dose 200-400 nM
[11] = Toxicity in C57BL/6 mouse assessed as effect on aspartate aminotransferase level measured after 7 days; conditions: in vivo, 168 h, time 7 day
[12] = Toxicity in C57BL/6 mouse assessed as effect on creatine kinase level measured upto 14 days; conditions: in vivo, 336 h, time <=14 day
[13] = Drug uptake in mouse B16 cells incubated for 24 hrs in presence of 2-deoxyglucose and sodium azide by mito-tracker green based confocal microscopic method; assay type: ADME, cell-based; conditions: b16, 24 h
A-375 [14] = assay: Induction of intracellular reactive oxygen species production in human A-375 cells assessed as […] membrane damage at 200 nM irradiated with 640 +/- 15 nm red LED for 1 hr measured after 4 hrs by mito-tracker green based confocal microscopic method; assay type: functional, cell-based

SMILES: CC(C)(C)C1=Cc2nc1ccc1[nH]c(cc1S(=O)(=O)NCCOCCO)c1nc(ccc3[nH]c2cc3C(C)(C)C)C(C(C)(C)C)=C1
- Activity (B16 [1]): inactive
- Drug uptake [2]: Active
- Drug uptake [3]: Active
- Activity (A-375 [4]): Active
- Activity (A-375 [5]): Active
- Activity (A-375 [6]): Active
- Activity (B16 [7]): Active
- Activity (A-375 [8]): Active
- Activity (A-375 [9]): Active
- Activity (B16 [10]): Active
- Activity [11]: Toxic
- Activity [12]: Non-Toxic
- Drug uptake [13]: Not Active
- Activity (A-375 [14]): Active

Source: ChEMBL document CHEMBL4732046, “A red-light-activated sulfonamide porphycene for highly efficient photodynamic therapy against hypoxic tumor” (Eur J Med Chem, 2021)
